Assay results taken from article PMC12813973, “Consequences of Peptide Macrocyclization Revealed by Virus-Inspired β‑Hairpin Mimetics” (ACS Chemical Biology, 2025).
Like-named read-outs stand apart in the source and are kept apart here. *1 amine or outer side, *2 acyl side, *3 side chain or, on linkers, in order; H or OH if unused. Where a SMILES comes first, the peptide text is derived from it. Bridges are numbered along the chain shown (N, C = ends). [ ]: non-standard residue; d: D form. oXylylene = c1ccc(C[*:2])c(C[*:1])c1; βAla = NCCC(=O)O

Key:
STAT1 [1] = biological target: T1, STAT1 (Homo sapiens, UniProt P42224); test: Grating-coupled interferometry (GCI) waveRAPID kinetics, immobilised full-length STAT1; assay type: binding; conditions: for Kd: 20 mM HEPES pH 7.5, 300 mM NaCl, 0.01% Tween-20, 1:1 kinetic model, average of 2–4 technical replicates ± SD, SD; for kon at 0.5 µM: analyte 0.5 µM, read-out: ka
T1 construct: full-length STAT1 (Uniprot #P42224-1) was expressed in E. coli; His tag (pEXP-NHis vector) (N); made in house; host or cells: E. coli T7 Express
T1 sequence (P42224 1-750): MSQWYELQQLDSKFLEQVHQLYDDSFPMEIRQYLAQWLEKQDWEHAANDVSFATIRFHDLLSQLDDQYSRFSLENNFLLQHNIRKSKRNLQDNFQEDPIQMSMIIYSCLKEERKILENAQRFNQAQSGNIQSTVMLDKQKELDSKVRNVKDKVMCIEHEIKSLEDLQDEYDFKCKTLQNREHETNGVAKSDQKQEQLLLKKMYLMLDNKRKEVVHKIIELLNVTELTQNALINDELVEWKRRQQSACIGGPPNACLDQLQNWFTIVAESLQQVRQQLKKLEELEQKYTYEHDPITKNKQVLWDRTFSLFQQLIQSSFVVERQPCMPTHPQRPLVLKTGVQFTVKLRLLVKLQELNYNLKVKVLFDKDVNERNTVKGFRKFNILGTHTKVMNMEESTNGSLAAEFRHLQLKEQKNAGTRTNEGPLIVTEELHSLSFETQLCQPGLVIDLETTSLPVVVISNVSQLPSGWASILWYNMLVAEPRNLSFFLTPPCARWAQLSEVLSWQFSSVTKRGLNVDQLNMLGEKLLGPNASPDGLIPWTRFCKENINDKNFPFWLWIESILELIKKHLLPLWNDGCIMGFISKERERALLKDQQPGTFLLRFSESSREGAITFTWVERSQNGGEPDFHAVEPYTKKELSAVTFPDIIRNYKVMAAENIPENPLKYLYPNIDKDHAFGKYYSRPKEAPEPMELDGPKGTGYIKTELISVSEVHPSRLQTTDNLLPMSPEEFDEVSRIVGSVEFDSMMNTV
Excerpt: Understanding the molecular determinants of kinetic rate constants of binding (k a, k d) can aid the design of pharmacological probes with longer target engagement, which is beneficial for drug efficacy and decreased toxicity. , We characterized the binding kinetics of 018-derived macrocycles by using grating-coupled interferometry (GCI). We used waveRAPID, a regeneration-free kinetic binding assay that applies sequential analyte pulses of increasing duration onto a GCI biosensor surface with an immobilized target (Figures A, and S3,S4, Table S2).
(§1) Grating coupled interferometry (GCI)
(§2) GCI experiments were performed on a Creoptix WaveDELTA instrument (Malvern Panalytical). Full-length STAT1 or STAT3 were immobilised on a 4PCH chip (Malvern Panalytical #4PCH-03) to a density 2000-8000 pg/mm2 using EDC/NHS activation followed by amine coupling. Briefly, proteins (500 nM) were applied onto an activated chip in 10 mM MES pH 6.5, 20 mM NaCl, after which the chip surface was passivated with 1M ethanolamine, pH 8.0.
(§3) The kinetic measurements were perfor med using 20 mM HEPES pH 7.5, 300 mM NaCl, 0.01% Tween-20, 0.0005% DMSO as running buffer. Peptides were tested at 0.5 or 10 μM concentration using the waveRAPID kinetics experiment with the tight binder or intermediate binder mode, respectively.[4] Sensorgrams were fitted in the waveControl software (Malven Panalytical) using the 1:1 kinetic model. […]

STAT1 [2] = biological target: T1, STAT1; test: Isothermal titration calorimetry (ITC) of peptide binding to STAT1
Protocol: To determine affinities and thermodynamic profiles of binding, we performed isothermal titration calorimetry (ITC) experiments for peptides 1, 2, 3, 4, 7, and 8 (Figures A,B and S1,S2, Table S1). […] The experiments were repeated in two different buffer systems, TBST (50 mM Tris pH 8.0, 300 mM NaCl, 0.01% Tween-20) and PBST ([…], 150 mM NaCl, 0.01% Tween-20), to account for possible buffer protonation enthalpy artifacts. […]
Isothermal titration calorimetry (ITC)
ITC experiments were performed using a PEAQ ITC instrument (Malvern Panalytical) in either TBST (50 mM Tris pH 8.0, 300 mM NaCl, 0.5 mM TCEP, 0.01% Tween -20) or PBST (10 mM sodium phosphate pH 7.4, 150 mM NaCl, 0.01% Tween -20) as reaction buffers. STAT1 protein was buffer -exchanged into reaction buffer supplemented with 2% DMSO on a NAP -5 deslating column (Cytiv a #17085301) and its concentration was adjusted to 10 or 20 μM.
Peptides were diluted in reaction buffer from DMSO stocks to a matching 2% DMSO concentration. Peptide concentrations were adjusted to approximately 100-200 μM. ITC experiments were performed with STAT1 in the cell and peptides in the syringe at 25°C, with 750 RPM stirring, DP = 4 μcal/sec. 18 injections of 2 μl were performed over a 50 min titration.
Thermogram integra tion and isotherm fitting were performed using the PEAQ ITC analysis software (Malvern Panalytical ). Isotherms were fitted using a 1:1 binding model. Due to challenges in determining peptide concentrations with high accuracy , protein concentrations and stoichiometry (N=1.0) were kept constant during isotherm fitting, whereas peptide concentrations were allowed to vary. Fixing a single reactant concentration during fitting is acceptable given the sufficiently high C -values and isotherm curvature observed in the […]
Offset subtraction was implemented to remove injection heats.

STAT3 = biological target: T2, STAT3 (Homo sapiens, UniProt P40763); test: biochemical; assay type: binding
T2 construct: STAT3: the gene encoding full-length STAT3 was codon optimised for expression in; MBP (pEXP-MBP vector) (cleaved yes); His tag (IMAC capture, removed with the fusion by TEV and reverse IMAC) (cleaved yes); made in house; host or cells: E. coli T7 Express
T2 sequence (P40763 whole entry, species assumed, the tested form may be a part): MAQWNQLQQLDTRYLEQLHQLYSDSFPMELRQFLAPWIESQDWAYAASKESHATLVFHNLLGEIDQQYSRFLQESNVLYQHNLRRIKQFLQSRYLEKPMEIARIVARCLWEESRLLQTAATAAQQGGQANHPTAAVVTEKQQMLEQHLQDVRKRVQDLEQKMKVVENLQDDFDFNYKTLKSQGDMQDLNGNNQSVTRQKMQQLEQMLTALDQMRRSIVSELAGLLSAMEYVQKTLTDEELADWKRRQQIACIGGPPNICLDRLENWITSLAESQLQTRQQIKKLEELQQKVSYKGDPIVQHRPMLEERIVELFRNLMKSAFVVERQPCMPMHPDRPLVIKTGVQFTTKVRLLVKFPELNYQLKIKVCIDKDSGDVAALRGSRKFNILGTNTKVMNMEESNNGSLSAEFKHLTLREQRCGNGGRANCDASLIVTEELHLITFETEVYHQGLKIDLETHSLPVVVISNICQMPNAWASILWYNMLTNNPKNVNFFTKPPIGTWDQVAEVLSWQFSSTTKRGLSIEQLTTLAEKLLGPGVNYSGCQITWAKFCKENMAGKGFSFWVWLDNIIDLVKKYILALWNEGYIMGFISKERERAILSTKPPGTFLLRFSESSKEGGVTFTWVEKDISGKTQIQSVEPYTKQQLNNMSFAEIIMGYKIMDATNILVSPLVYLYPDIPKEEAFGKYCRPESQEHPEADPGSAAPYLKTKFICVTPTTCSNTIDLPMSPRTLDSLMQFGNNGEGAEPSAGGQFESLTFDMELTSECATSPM
Protocol: In such PPIs, the bulk of the binding energy contribution typically stems from backbone interactions, whereas binding specificity is fine-tuned by side-chain contacts. […] We evaluated the binding kinetics of peptides to full-length STAT3 using GCI.
as §1, §2, §3
GCI sensorgrams depicting RAPID kinetics measurements and fitted kinetic models for peptide binding to full-length STAT3 immobilised on a polycarboxylate hydrogel chip (4PCH). Peptides were applied at 0.5 or 10 μM concentration using the medium or tight binders pulse sequence. The peptides that show negligible Rmax values at 10 μM analyte concentration were classified as non-binding.
(1 picture or pasted object on this page, not shown here)

STAT1 [3] = biological target: T1, STAT1; test: Fluorescence polarization competition assay with fluorescein-labelled pIFNGR1 docking site peptide probe; assay type: binding; conditions: 10 nM fluorescein pIFNGR1 probe, STAT1 1.5 μM, 20 mM Tris pH 8.0, 300 mM NaCl, 0.1% Tween-20, 0.5 mM TCEP, 2.5% DMSO, room temperature; four parameter logistic fit; read-out: IC50 (FP competition, pIFNGR1 probe displacement)
[4] = replicate 1 (first listed run, Table S2)
[5] = replicate 2 (second listed run, Table S2)
[6] = replicate 3 (third listed run, Table S2)
[7] = PBST pH 7.4 (NaPi, 150 mM NaCl, 0.01% Tween-20), average of 2–3 technical replicates, read-out: KD (ITC, summary Fig 2B)
[8] = TBST pH 8.0, average of 2–3 technical replicates, read-out: KD (ITC, summary Fig 2B)

| SMILES | Kd (STAT1 [1]) [µM] | kon at 0.5 µM (STAT1 [1]; [4]) [M⁻¹ s⁻¹] | kon at 0.5 µM (STAT1 [1]; [5]) [M⁻¹ s⁻¹] | kon at 0.5 µM (STAT1 [1]; [6]) [M⁻¹ s⁻¹] | Kd (STAT1 [2]; [7]) [µM] | Kd (STAT1 [2]; [8]) [µM] | ka (STAT3) [M⁻¹ s⁻¹] | Kd (STAT3; full-length STAT3 on 4PCH chip, average of technical replicates ± SD (Fig 3E), SD, read-out: STAT3 KD (GCI waveRAPID)) [µM] | kon (STAT3; read-out: ka) [M⁻¹ s⁻¹] | IC50 (STAT1 [3]) [µM] | Kd (STAT1 [2]; TBST (50 mM Tris pH 8.0, 300 mM NaCl, 0.01% Tween-20), 25°C, 1:1 model, average of three technical replicates ± SD (text and Fig 2A), SD, read-out: KD (ITC)) [µM] |
| --- | --- | --- | --- | --- | --- | --- | --- | --- | --- | --- | --- |
| CC[C@H](C)[C@@H]1NC(=O)[C@@H](NC(=O)[C@@H](NC(=O)[C@H](CO)NC(=O)[C@H](Cc2c[nH]c3ccccc23)NC(=O)[C@H](CCSC)NC(C)=O)C(C)C)CSCc2ccccc2CSC[C@@H](C(=O)N[C@@H](CCCCN)C(=O)N[C@H](C(=O)N[C@@H](Cc2ccc(O)cc2)C(=O)N[C@H](C(N)=O)[C@@H](C)O)[C@@H](C)O)NC(=O)CNC(=O)[C@H](CCCCN)NC(=O)[C@H](CC(N)=O)NC(=O)[C@H](CO)NC(=O)CNC(=O)[C@H](CC(=O)O)NC(=O)[C@H](Cc2c[nH]cn2)NC(=O)CNC(=O)[C@H](Cc2c[nH]cn2)NC1=O [Peptide 9] (Ac-MWSVCIHGHDGSNKGCKTYT-NH2; linker 5-16 via oXylylene) | 0.0015 ± 0.0001 | 587000 | 570000 | 540000 | – | – | – | – | – | – | – |
| CC[C@H](C)[C@@H]1NC(=O)[C@H](CS)NC(=O)[C@H](C(C)C)NC(=O)[C@H](CO)NC(=O)[C@H](Cc2c[nH]c3ccccc23)NC(=O)[C@H](CCSC)NC(=O)CCNC(=O)CCNC(=O)[C@H]([C@@H](C)O)NC(=O)[C@H](Cc2ccc(O)cc2)NC(=O)[C@H]([C@@H](C)O)NC(=O)[C@H](CCCCN)NC(=O)[C@H](CS)NC(=O)CNC(=O)[C@H](CCCCN)NC(=O)[C@H](CC(N)=O)NC(=O)[C@H](CO)NC(=O)CNC(=O)[C@H](CC(=O)O)NC(=O)[C@H](Cc2c[nH]cn2)NC(=O)CNC(=O)[C@H](Cc2c[nH]cn2)NC1=O [Peptide 3] (cyclo(CIHGHDGSNKGCKTYT[βAla][βAla]MWSV)) | 0.0075 ± 0.0005 | 261000 | 276000 | – | 0.055 | 0.145 | 83900 | 9.3 ± 0.453 | 81000 | 1.3 | – |
| CSCC[C@@H]1NC(=O)CCNC(=O)CCNC(=O)[C@H]([C@@H](C)O)NC(=O)[C@H](Cc2ccc(O)cc2)NC(=O)[C@H]([C@@H](C)O)NC(=O)[C@H](CCCCN)NC(=O)[C@H](CO)NC(=O)[C@@H]2CSCc3ccccc3CSC[C@H](NC(=O)[C@H](Cc3ccccc3)NC(=O)[C@H](C(C)C)NC(=O)[C@H](CO)NC(=O)[C@H](Cc3c[nH]c4ccccc34)NC1=O)C(=O)N[C@@H](Cc1c[nH]cn1)C(=O)NCC(=O)N[C@@H](Cc1c[nH]cn1)C(=O)N[C@@H](CC(=O)O)C(=O)NCC(=O)N[C@@H](CO)C(=O)N[C@@H](CC(N)=O)C(=O)N[C@@H](CCCCN)C(=O)N2 [Peptide 8] (cyclo(CHGHDGSNKCSKTYT[βAla][βAla]MWSVF); linker 1-10 via oXylylene) | 0.0754 ± 0.0008 | 87000 | 80000 | – | 0.247 | 0.436 | – | – | – | – | – |
| CC[C@H](C)[C@@H]1NC(=O)[C@H](Cc2ccccc2)NC(=O)[C@H](C(C)C)NC(=O)[C@H](CO)NC(=O)[C@H](Cc2c[nH]c3ccccc23)NC(=O)[C@H](CCSC)NC(=O)CCNC(=O)CCNC(=O)[C@H]([C@@H](C)O)NC(=O)[C@H](Cc2ccc(O)cc2)NC(=O)[C@H]([C@@H](C)O)NC(=O)[C@H](CCCCN)NC(=O)[C@H](CO)NC(=O)CNC(=O)[C@H](CCCCN)NC(=O)[C@H](CC(N)=O)NC(=O)[C@H](CO)NC(=O)CNC(=O)[C@H](CC(=O)O)NC(=O)[C@H](Cc2c[nH]cn2)NC(=O)CNC(=O)[C@H](Cc2c[nH]cn2)NC1=O [Peptide 2] | 0.0089 ± 0.0019 | 216000 | 213000 | 321000 | 0.122 | – | – | – | – | – | 0.33 ± 0.02 |
| CSCC[C@@H]1NC(=O)CCNC(=O)CCNC(=O)[C@H]([C@@H](C)O)NC(=O)[C@H](Cc2ccc(O)cc2)NC(=O)[C@H]([C@@H](C)O)NC(=O)[C@H](CCCCN)NC(=O)[C@H](CO)NC(=O)[C@H](CS)NC(=O)[C@H](CCCCN)NC(=O)[C@H](CC(N)=O)NC(=O)[C@H](CO)NC(=O)CNC(=O)[C@H](CC(=O)O)NC(=O)[C@H](Cc2c[nH]cn2)NC(=O)CNC(=O)[C@H](Cc2c[nH]cn2)NC(=O)[C@H](CS)NC(=O)[C@H](Cc2ccccc2)NC(=O)[C@H](C(C)C)NC(=O)[C@H](CO)NC(=O)[C@H](Cc2c[nH]c3ccccc23)NC1=O [Peptide 7] (cyclo(CHGHDGSNKCSKTYT[βAla][βAla]MWSVF)) | 0.0969 ± 0.004 | 129000 | 131000 | 137000 | 0.114 | 1.93 | – | – | – | – | – |
